Like-named read-outs stand apart in the source and are kept apart here. Numbered stars: 1 amine (or outer) side, 2 acyl side, 3 side chain; on linkers, the order of the positions; unused ones are H or OH. Bridge positions count the residues as written; N and C are the ends. Square brackets hold non-standard residues; d marks the D form. Peptide text beside a SMILES is read from it. Trp(βS-Me,7-OMe) = COc1cccc2c([C@H](C)[C@H](N)C(=O)O)c[nH]c12; Trp(7-Br) = N[C@@H](Cc1c[nH]c2c(Br)cccc12)C(=O)O; Trp(7-Cl) = N[C@@H](Cc1c[nH]c2c(Cl)cccc12)C(=O)O; X11 = O=C(O)C[C@@H]1C[C@H](C(=O)[*:2])N([*:1])C1; Phe(4-CONH2) = NC(=O)c1ccc(C[C@H](N)C(=O)O)cc1; Phe(4-COOH) = N[C@@H](Cc1ccc(C(=O)O)cc1)C(=O)O; Pip(5R-OH) = O=C(O)[C@@H]1CC[C@@H](O)CN1; X1 = O=C([C@@H]1CC[C@H](N[*:1])C1)[*:2]; Pip(4-aza) = O=C(O)[C@@H]1CNCCN1; 4Pal = N[C@@H](Cc1ccncc1)C(=O)O; NMeE = CN[C@@H](CCC(=O)O)C(=O)O; Lys(Me) = CNCCCC[C@H](N)C(=O)O; αMeS = C[C@](N)(CO)C(=O)O; Nle = CCCC[C@H](N)C(=O)O; Sar = CNCC(=O)O
Experiments:
[1] = molecular target: T1, human TNFR1 extracellular domain (ECD) protein (Homo sapiens, UniProt P19438); assay: SPR binding affinity to captured human TNFR1 ECD
T1 construct: HRV 3C protease cleavage site (C); 6His (C, cleaved yes); made in house; host or cells: Sf21 insect cells (baculovirus), secreted
T1 sequence (P19438 30-211): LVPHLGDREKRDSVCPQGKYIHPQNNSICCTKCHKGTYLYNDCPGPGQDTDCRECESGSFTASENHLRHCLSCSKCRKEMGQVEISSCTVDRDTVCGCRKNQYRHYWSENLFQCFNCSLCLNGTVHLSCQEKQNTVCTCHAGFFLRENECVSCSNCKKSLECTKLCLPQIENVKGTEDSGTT
Procedure: (§1) B. Procedure for Binding Affinity and Selectivity measured by SPR
(§2) Affinity and selectivity for hTNFR1 and TNFR2 was determined using SPR. Human TNFR1 or TNFR2 genes (extracellular domain only) were synthesized with a C-terminal Avi-tag, HRV 3C protease cleavage site followed by a 6His-tag for affinity purification. The final gene product was cloned into pBAC™-1 vector (Millipore Sigma) for expression testing in insect cells. Constructs were transfected into Sf21 cells for baculovirus generation followed by protein expression analysis in Sf21 and Tni cell lines. Large scale expression in Sf21 cells was performed using baculovirus infected insect cells (BIICs) infected at a MOI=2.0 grown for 72 h. Target proteins secreted into the media were harvested via centrifugation and concentrated using diafiltration. TNFR was purified by immobilized metal ion affinity chromatography (IMAC) using a Ni-Sepharose HisTrap™ column (Cytiva™). Isolated TNFR had His tag removed using HRV 3C protease followed by additional purification using Ni-NTA chromatography. Biotinylation was performed on Ni-NTA flow-through fractions concentrated to 45 μM and treated with BirA ligase (1:100, μg/μg ratio) in 50 mM Tris pH 7.5, 150 mM NaCl, 50 μM biotin, 10 mM magnesium acetate, 10 mM ATP at 4° C. for 20 h. Final purification of biotin-TNFR and buffer exchange into 20 mM HEPES pH 7.5, 150 mM NaCl was performed using a HiLoad® Superdex® 200 26/60 column (Cytiva™). Highly purified protein was aliquoted and stored at −80° C.
(§3) The SPR assay uses a Cytiva™ 8K or 8K+ biosensor instrument to measure the kinetics of peptide analytes binding to captured human TNFR1 extracellular domain (ECD) protein; peptide analytes are also evaluated for any off-target binding to human TNFR2 ECD protein in parallel. Recombinant human TNFR1 ECD and human TNFR2 ECD proteins, biotinylated via engineered C-terminal avi-tags, are immobilized to a regenerable streptavidin biosensor chip surface (Cytiva™ Biotin CAPture kit, Series S; cat. #28920234). Peptide analytes binding to immobilized human TNFR1 ECD protein and their subsequent dissociation are conducted in a buffer of 10 mM HEPES pH 7.4, 150 mM NaCl, 3 mM EDTA, 0.05% P20,2% DMSO under laminar flow conditions and measured in response units (RU), which are directly proportional to the accumulated mass on the surface of the biosensor chip; the biosensor chip surface is regenerated via Cytiva™ proprietary methods between the evaluation of each peptide analyte. […] The SPR assay determines the association and dissociation rate constants, kon and koff, for each peptide analyte and, from these values, calculates the binding affinity, […] reported in Table 2.

human TNFR2 ECD protein = molecular target: T2, human TNFR2 ECD protein (Homo sapiens, UniProt P20333); assay: SPR off-target binding (selectivity) to human TNFR2 ECD
T2 construct: HRV 3C protease cleavage site (C); 6His (C, cleaved yes); made in house; host or cells: Sf21 insect cells (baculovirus), secreted
T2 sequence (P20333 23-257): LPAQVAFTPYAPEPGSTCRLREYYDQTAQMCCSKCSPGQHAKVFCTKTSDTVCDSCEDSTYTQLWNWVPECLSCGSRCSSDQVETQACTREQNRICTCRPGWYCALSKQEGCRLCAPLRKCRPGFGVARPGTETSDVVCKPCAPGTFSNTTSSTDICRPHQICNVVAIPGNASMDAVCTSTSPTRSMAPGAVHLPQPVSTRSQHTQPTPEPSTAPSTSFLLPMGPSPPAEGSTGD
Procedure: as §1, §2, §3

[2] = molecular target: T3, TNFα-induced NF-κB signal transduction pathway (TNFR1 signaling) in THP-1 cells (Homo sapiens, UniProt P19438); assay: THP-1 Lucia NF-κB reporter cell assay, inhibition of TNFα-induced NF-κB signaling; assay type: cell-based; details: THP-1 NF-κB Lucia reporter cells, 10 ng/mL TNFα, 16-18 h, secreted luciferase; read-out: THP-1 IC50
T3 sequence (P19438 30-455): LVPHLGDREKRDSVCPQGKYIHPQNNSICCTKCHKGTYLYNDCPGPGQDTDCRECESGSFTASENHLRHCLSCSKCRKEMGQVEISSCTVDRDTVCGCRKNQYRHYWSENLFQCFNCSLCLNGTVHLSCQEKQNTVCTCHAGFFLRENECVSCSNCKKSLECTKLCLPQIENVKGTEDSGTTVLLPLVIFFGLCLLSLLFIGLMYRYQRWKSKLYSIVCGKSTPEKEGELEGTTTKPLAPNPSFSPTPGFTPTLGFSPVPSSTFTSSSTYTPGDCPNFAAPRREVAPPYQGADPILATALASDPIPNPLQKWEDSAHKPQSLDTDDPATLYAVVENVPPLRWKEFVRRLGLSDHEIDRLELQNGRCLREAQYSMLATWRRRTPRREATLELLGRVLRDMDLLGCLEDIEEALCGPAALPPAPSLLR
Method in brief: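 IC50 from a 4-parameter logistic fit of secreted luciferase luminescence (QUANTI-Luc), normalised to min/max controls. Reporter THP-1 cells were exposed to peptides for 1 h at 37 °C before 10 ng/mL TNFα (final) was added overnight (16–18 h).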

In the case of `CCCC[C@@H]1NC(=O)CSC[C@@H](C(N)=O)NC(=O)[C@H]([C@@H](C)c2c[nH]c3c(OC)cccc23)NC(=O)CN(C)C(=O)[C@H](Cc2ccc(O)cc2)NC(=O)[C@H](Cc2ccc(C(N)=O)cc2)NC(=O)[C@](C)(CO)NC(=O)[C@H](Cc2c[nH]c3c(Br)cccc23)NC(=O)[C@H](Cc2ccncc2)NC(=O)[C@H](CC(N)=O)NC(=O)[C@H](CCC(=O)O)N(C)C(=O)[C@H](Cc2c[nH]c3ccccc23)NC(=O)[C@@H]2CC[C@@H](O)CN2C(=O)[C@H](Cc2ccncc2)NC1=O` [SEQ ID NO. 39] ({CH2CO}-[Nle][4Pal][Pip(5R-OH)]W[NMeE]N[4Pal][Trp(7-Br)][αMeS][Phe(4-CONH2)]Y[Sar][Trp(βS-Me,7-OMe)]C-NH2; thioether N-14), the Kd [1] is reported as 0.05 nM, the Kd (human TNFR2 ECD protein) is reported as greater than 1000 nM and the IC50 [2] is reported as 0.9 nM.
`CCCC[C@@H]1NC(=O)[C@@H]2CC[C@@H](C2)NC(=O)[C@H]([C@@H](C)c2c[nH]c3c(OC)cccc23)NC(=O)CN(C)C(=O)[C@H](Cc2ccc(O)cc2)NC(=O)[C@H](Cc2ccc(C(=O)O)cc2)NC(=O)[C@](C)(CO)NC(=O)[C@H](Cc2c[nH]c3c(Cl)cccc23)NC(=O)[C@H](Cc2ccncc2)NC(=O)[C@H](CC(N)=O)NC(=O)[C@H](CCC(=O)O)N(C)C(=O)[C@H](Cc2c[nH]c3ccccc23)NC(=O)[C@@H]2CNCCN2C(=O)[C@H](Cc2ccncc2)NC1=O` [SEQ ID NO. 5] (cyclo([4Pal][Trp(7-Cl)][αMeS][Phe(4-COOH)]Y[Sar][Trp(βS-Me,7-OMe)][X1][Nle][4Pal][Pip(4-aza)]W[NMeE]N)) showed a Kd ([1]; biotinylated human TNFR1 ECD on streptavidin chip, from kon and koff, read-out: SPR hTNFR1 KD) of 0.1 nM, a Kd (human TNFR2 ECD protein; biotinylated human TNFR2 ECD on streptavidin chip, read-out: SPR hTNFR2 KD) greater than 1000 nM and an IC50 [2] of 1.2 nM.
Work on `CNCCCC[C@@H]1NC(=O)[C@@H]2CC[C@@H](C2)NC(=O)[C@H]([C@@H](C)c2c[nH]c3c(OC)cccc23)NC(=O)CN(C)C(=O)[C@H](Cc2ccc(O)cc2)NC(=O)[C@H](Cc2ccc(C(N)=O)cc2)NC(=O)[C@](C)(CO)NC(=O)[C@H](Cc2c[nH]c3c(Cl)cccc23)NC(=O)[C@H](Cc2ccncc2)NC(=O)[C@H](CC(N)=O)NC(=O)[C@H](CCC(=O)O)N(C)C(=O)[C@H](Cc2c[nH]c3ccccc23)NC(=O)[C@@H]2CC[C@@H](O)CN2C(=O)[C@H](Cc2ccncc2)NC1=O` [SEQ ID NO. 86] (cyclo([4Pal][Trp(7-Cl)][αMeS][Phe(4-CONH2)]Y[Sar][Trp(βS-Me,7-OMe)][X1][Lys(Me)][4Pal][Pip(5R-OH)]W[NMeE]N)) yielded a Kd [1] of 0.08 nM, a Kd (human TNFR2 ECD protein) greater than 1000 nM and an IC50 [2] of 0.5 nM.
Molecule `CCCC[C@@H]1NC(=O)[C@@H]2CC[C@@H](C2)NC(=O)[C@H]([C@@H](C)c2c[nH]c3c(OC)cccc23)NC(=O)CN(C)C(=O)[C@H](Cc2ccc(C(=O)O)cc2)NC(=O)[C@H](Cc2ccc(C(N)=O)cc2)NC(=O)[C@](C)(CO)NC(=O)[C@H](Cc2c[nH]c3c(Cl)cccc23)NC(=O)[C@H](Cc2ccc(C(=O)O)cc2)NC(=O)[C@H](CC(N)=O)NC(=O)[C@H]2C[C@@H](CC(=O)O)CN2C(=O)[C@H](Cc2c[nH]c3ccccc23)NC(=O)[C@@H]2CC[C@@H](O)CN2C(=O)[C@H](Cc2ccncc2)NC1=O` [SEQ ID NO. 132] (cyclo([4Pal][Pip(5R-OH)]W[X11]N[Phe(4-COOH)][Trp(7-Cl)][αMeS][Phe(4-CONH2)][Phe(4-COOH)][Sar][Trp(βS-Me,7-OMe)][X1][Nle])) has a Kd [1] of 0.08 nM, a Kd (human TNFR2 ECD protein) greater than 1000 nM and an IC50 [2] of 0.7 nM.

From patent US20240287138A1, “CYCLIC PEPTIDES FOR INHIBITING TNF RECEPTOR 1 ACTIVITY” (Merck Sharp & Dohme LLC, priority 2023, published 2024)
